Data from PubChem BioAssay AID2305 (GlaxoSmithKline (GSK), 2010).
pIC50: −log10 of the molar value.

Test system: P. falciparum 3D7 growth, pLDH absorbance
Assay: blood-stage malaria parasite growth potency – strain 3D7, dose response (AID 2305)

Compared with `Cc1ccc(CN2CCN(Cc3cccc(NC(=O)c4ccc5ccccc5c4)c3)CC2)cc1C`, `O=C(Nc1cccc(CN2CCN(Cc3ccc(O)cc3)CC2)c1)c1ccc(-c2ccccc2)cc1` is 0.69 log units higher in pIC50: 5.91 for the first, 6.60 for the second. The second is the more potent here.

First: COc1cc(N(C)Cc2cnc3nc(N)nc(N)c3n2)cc(OC)c1OC
Second: COc1cccc(Cc2c(C)nc3nc(N)nc(N)c3c2C)c1
The pIC50 of the first is 0.30 log units higher: 6.36 for the first, 6.06 for the second. The first is the more potent here.

First: COc1ccccc1C1CC(c2ccccc2)=NN1C(=O)c1ccccc1 (stereo not given)
Second: COc1ccc(NC(=O)[C@H](Cc2ccccc2)Nc2cc(C)nc(Nc3ccccc3)n2)cc1
The pIC50 of the first is 0.52 log units higher: 6.52 for the first, 6.00 for the second.

Compared with `Cc1cccc2[nH]c(-c3cccc(-c4ccc(C(=O)NCc5nccn5C)cc4)c3)nc12`, `COc1ccc(CNCc2ccc(-c3cccc(-c4nc5c(C)cccc5[nH]4)c3)cc2)cc1` is 1.01 log units higher in pIC50: 5.88 for the first, 6.89 for the second. The second is the more potent here.

`Cc1cc(OCc2ccncc2)cc2c1C(=O)CC(C)(C)O2` and `Cc1ccc(O)cc1Nc1ccnc2cc(-c3ccc(CN4CCCCC4)o3)ccc12` are within 0.2 log units of each other in pIC50: 6.74 for the first, 6.77 for the second.

Going from `CC(=O)N(Cc1cccc(-c2cccc(CNCCc3ccccc3)c2)c1)C1CCN(Cc2ccccc2)CC1` to `CN1CCC(C(=O)N(Cc2ccc(-c3ccc(CNCCc4ccccc4)cn3)cc2)C2Cc3ccccc3C2)CC1`, the pIC50 falls from 6.17 to 5.97 (0.20 log units).

Compared with `C[C@H](Cc1ccc(OCCCCCCOc2ccc(C[C@@H](C)NC(=O)[C@H](O)c3cccc(Cl)c3)cc2)cc1)NC[C@H](O)c1cccc(Cl)c1`, `CCN(CC)CCN(Cc1ccc(-c2ccc(C#N)cc2)cc1)C(=O)Cn1c(CCc2cccc(F)c2F)nc(=O)c2ccccc21` is 1.58 log units higher in pIC50: 6.42 for the first, 8.00 for the second. The second is the more potent here.

`CCCc1cc(Cc2cnc(N)nc2N)cc(OCCCCCC(=O)O)c1OC` and `CCCC1N=C(N)N=C(N)N1c1ccc(OC)cc1` (stereo not given) are within 0.2 log units of each other in pIC50: 6.80 for the first, 6.64 for the second.

`CN1CCC(Oc2ccc(CN3CC[C@H](NC(=O)c4ccc(Cl)c(Cl)c4)C3)cc2Cl)C1` (stereo not given in full) and `COc1ccccc1/C=C/C(=O)NCCC1CCN(CCCCCNC(=O)/C=C/c2ccc(Cl)c(Cl)c2)CC1` are within 0.2 log units of each other in pIC50: 6.06 for the first, 6.09 for the second.

Going from `CCN(CC)CCCC(C)Nc1ccnc2[nH]c3ccccc3c12` (stereo not given) to `CCN(CC)CC(O)c1cc(-c2ccc(C)cc2)nc2c(C)cc(C)cc12` (stereo not given), the pIC50 rises from 5.75 to 6.77 (1.02 log units).

Going from `COc1ccc(-c2ccc(NC(=O)c3cccc(Cl)c3)c(F)c2)cc1CN1CCCN(C)CC1` to `COc1ccc(NC(=O)c2ccc(Br)c(C)c2)cc1N1CCN(CCCc2c[nH]c3ccccc23)CC1`, the pIC50 rises from 6.17 to 6.42 (0.25 log units).

`COc1ccc(Cl)cc1N1CCN(CCCNC(=O)c2ccc(-c3nc4cc(Cl)c(C)cc4[nH]3)s2)CC1` and `CCCN1CCN(CCCNC(=O)c2cc3c(Cl)nc4ccc(C)cc4c3s2)CC1` are within 0.2 log units of each other in pIC50: 6.11 for the first, 6.10 for the second.

Compared with `COc1ccc(CNC(=O)NC2CCN(c3ccnc(Nc4ccc(OC)cc4)n3)C2)cc1` (stereo not given), `COc1ccc2nccc([C@@H](O)CN3CCC(NCCOc4ccccc4[N+](=O)[O-])CC3)c2c1` is 0.42 log units higher in pIC50: 6.00 for the first, 6.42 for the second. The second is the more potent here.

`Cc1cnc(C(=O)Nc2cccc(-c3ccc(-c4nc5ccc(F)cc5[nH]4)cc3)c2)cn1` and `COCCN1CCN(Cc2cccc(-c3ccc(-c4nc5ccccc5[nH]4)cc3)c2)CC1` are within 0.2 log units of each other in pIC50: 6.19 for the first, 6.12 for the second.

`Fc1c(CNCC2CCN(CC3CCCCC3)CC2)cccc1C(F)(F)F` and `O=C(Nc1cccc(OC2CCN(Cc3ccc(F)cc3)CC2)c1)c1ccc(C(F)(F)F)cc1` are within 0.2 log units of each other in pIC50: 6.05 for the first, 6.02 for the second.

Going from `COc1ccc2ncc(F)c(CCN3CCC(NCc4cc(C)c5c(c4)OCCO5)CC3)c2n1` to `COc1ccc2nccc([C@@H](O)CN3CCC(NCCOc4ccc(F)cc4Cl)CC3)c2c1`, the pIC50 rises from 6.31 to 6.55 (0.24 log units).

`CCN(CCCN1CCCCC1)c1cc(C)nc(Nc2cc(F)cc(F)c2)n1` and `Cc1cnc(Nc2cccc(CCN3CCOCC3)c2)nc1NC(C)C` are within 0.2 log units of each other in pIC50: 6.24 for the first, 6.13 for the second.

Compared with `Cc1cccc2[nH]c(-c3ccc(-c4ccc(CN5CCN(c6ccncc6)CC5)cc4)s3)nc12`, `COc1ccccc1CN1CCC(NC(=O)c2ccc(-c3ccc(N(C)C)cc3)s2)CC1` is 0.94 log units lower in pIC50: 6.96 for the first, 6.02 for the second.

First: O=C(NCCCCCN1CCC(c2c[nH]c3ccccc23)CC1)Nc1ccc(Br)cc1
Second: COc1ccc2c(c1C1CCN(CCCCNC(=O)c3ccc(NC(=O)c4ccc(Cl)cc4)cc3)CC1)CCCC2
The pIC50 of the first is 0.43 log units lower: 6.04 for the first, 6.47 for the second. The second is the more potent here.

`O=C1Nc2cccc3c2C1(CCCCN1CCC(c2c(-c4ccccc4)[nH]c4ccccc24)CC1)CCC3` (stereo not given) and `CC1CCCCN1CCCNc1nc(NCc2ccccc2)c2ccccc2n1` (stereo not given) are within 0.2 log units of each other in pIC50: 5.92 for the first, 6.02 for the second.

Going from `Clc1cc(Nc2ccnc3ccc(Br)cc23)ccc1Oc1ccc2ccccc2c1Cl` to `CC(=O)NCCNc1cc(N2CCc3ncnc(Nc4ccc(OCc5c(F)cccc5F)c(Cl)c4)c3C2)ncn1`, the pIC50 rises from 6.14 to 6.80 (0.66 log units). The second is the more potent here.

Going from `CCC(COCc1ccc(Cl)cc1)N(C)CCN(C)C(CC)COCc1ccc(Cl)cc1` (stereo not given) to `CCCC(C)C(=O)N1CCOC(COCc2cccc(C(F)(F)F)c2)(c2ccc(Cl)cc2)C1` (stereo not given), the pIC50 rises from 5.97 to 6.40 (0.43 log units). The second is the more potent here.

`Cc1c(C)n(C2CCCCC2)c2ncnc(OC3CCN(CC(=O)NC4CC4)CC3)c12` and `Cc1cc(N[C@@H](Cc2ccccc2)C(=O)NC2CCCC2)nc(NCCc2cccs2)n1` are within 0.2 log units of each other in pIC50: 5.91 for the first, 5.85 for the second.

Going from `CC(C)(C)NS(=O)(=O)c1cc(C(=O)N2CCC(CCN3CCC(C(=O)c4ccc(F)cc4)CC3)(c3cccc(F)c3)CC2)c(Cl)cc1F` to `CC(=O)N/N=C/[C@H](CCc1ccccc1)NC(=O)[C@H](CC(C)C)NC(=O)c1ccc(OCCN2CCOCC2)cc1`, the pIC50 rises from 6.12 to 6.66 (0.54 log units). The second is the more potent here.

First: CCOC(C(=O)OCC1CCCN1C)(c1ccccc1)c1ccccc1 (stereo not given)
Second: CCCn1c(SCC(=O)Nc2cc(C(F)(F)F)ccc2Cl)n[nH]c1=O
The pIC50 of the first is 0.59 log units lower: 6.07 for the first, 6.66 for the second.
